From US10172962B2, “Macromolecular delivery systems for non-invasive imaging, evaluation and treatment of arthritis and other inflammatory diseases” (University of Utah Research Foundation, priority 2004, dated 2019)

Assays:
Assay type in all cases: in vivo, rat
AIA rats [1] = test: Treatment of AIA rats: bone mineral density by peripheral dual x-ray absorptiometry; details: 7/group, FIG. 8
Experimental: The bone mineral density (BMD) of the bones in the arthritic joints was measured by peripheral dual x-ray absorptiometry (pDXA, Norland Medical Systems) adapted for small animals. For this the intact hind limbs were used and the scan region included the ankle and foot bones. The coefficient of variation between measurements was less than 1%.
One of the significant impacts of rheumatoid arthritis inflammation is the damage to the bone in the joints, which is evident in FIG. 8 of the animals with no treatment (saline). […] However, such improvement can be greatly strengthened if Dex is conjugated to HPMA copolymer. […] A more dynamic factor to consider in the bone metabolism is the extent of bone erosion. The bone eroded surface directly correlates with the recruitment and activity of osteoclasts, which are the cells responsible for bone resorption and the development of bone damage. In FIG. 9, the bone erosion surface data for all the treatment groups is summarized. […] The histology analysis of the arthritic joints with different treatments also confirmed the superiority of the P-Dex treatment (FIG. 10).

AIA rats [2] = test: Treatment of AIA rats: ankle joint swelling (caliper diameter)
Experimental: (§1) Male Lewis rats (175-200 g) were obtained from Charles River Laboratories (Portage, Mich.) and allowed to acclimate for at least one week. To induce arthritis, Mycobacterium Tuberculosis H37Ra (1 mg) and LA (5 mg) were mixed in paraffin oil (100 μL), sonicated and s.c. injected into the base of the rat's tail (20). The rats were then randomized into 3 rats/group. The progression of the joint inflammation was followed by measuring the diameter of the ankle joint with calipers. Special care was given to the rats as the inflammation developed to ensure availability and access to water and food. The MRI contrast agents used for the study were injected directly into the jugular vein while the animal was anesthetized with Ketamine and Xylazine.
. Hydrazine was used as the targeting moiety, as it may bind to negative charged moieties on cartilage. The anti-arthritic drug, dexamethasone, was linked to the polymer backbone (P-Dex) via a pH sensitive hydrozone bond as illustrated in FIG. 6. The polymer with the hydrazine and dexamethasone attached was then injected into AIA rats (4/group) on day 13 after the induction of arthritis. A single dose of 10 mg (P-Dex)/kg was given. […]

healthy rats = test: Evans blue dye injection in healthy control rats; details: EB 10 mg/kg tail vein
Experimental: (§2) Evans blue dye (EB, 10 mg/kg in saline) was injected into healthy and AIA rats via the tail vein. The extravasation and accumulation of dye in the areas of joint inflammation could be visually observed as appearance of the blue pigment. Photographs of the ankle and paws were taken before and 8 hours after injection.
For this experiment, EB was injected into the rats 15 days after injection of the adjuvant. By this time, there is a robust inflammatory reaction evident in the ankle joints. […] Some deep blue spots were also observed on some digits of the paw. Photographs taken before and after injection of the EB dye confirm that the areas with dye accumulation correspond to those with marked inflammation.

AIA rats [3] = test: Visualization of plasma albumin accumulation with Evans blue dye in AIA rats
Experimental: as §1, §2
For this experiment, EB was injected into the rats 15 days after injection of the adjuvant. By this time, there is a robust inflammatory reaction evident in the ankle joints. […] Some deep blue spots were also observed on some digits of the paw. […]

SMILES | bone mineral density (BMD) / bone preservation of the arthritic joints (AIA rats [1]) | ankle joint swelling after the injections on day 13 (AIA rats [2]; P-Dex single dose 10 mg/kg day 13, Dex same dose divided in 4 daily doses day 13-16) | course of inflammation after cessation of the daily Dex injections (AIA rats [2]; P-Dex single dose day 13, Dex 4 daily doses day 13-16) | localization of dye to joint areas (healthy rats) | accumulation of dye in inflamed paws (AIA rats [3]; AIA rats, EB 10 mg/kg tail vein, 15 days after adjuvant) | nonspecific transfer of dye to other tissues (AIA rats [3]; organs including liver and heart)
C[C@@H]1C[C@H]2[C@@H]3CCC4=CC(=O)C=C[C@]4(C)[C@@]3(F)[C@@H](O)C[C@]2(C)[C@@]1(O)C(=O)COP(=O)(O)O [Dex, Dexamethasone sodium phosphate] | can slow bone erosion | dramatic decrease of ankle joint swelling | the inflammation rapidly got worse |  |  | 
Cc1cc(-c2ccc(/N=N/c3ccc4c(S(=O)(=O)O)cc(S(=O)(=O)O)c(N)c4c3O)c(C)c2)ccc1/N=N/c1ccc2c(S(=O)(=O)O)cc(S(=O)(=O)O)c(N)c2c1O [EB, Evans blue] |  |  |  | the dye was not localized to joint areas | gradual accumulation of blue color in the inflamed hind paw and front paws | a slight blue staining was evident in some organs
